{
  "source": "patent US20230133672A1",
  "about": "“FUSION POLYPEPTIDE COMPRISING GDF15 AND POLYPEPTIDE REGION CAPABLE OF O-GLYCOSYLATION” (LG CHEM, LTD., priority 2019, published 2023)",
  "key": {"[1]": {"assay": "Single administration: feed intake in DIO mice", "assay_type": "in vivo, Mouse, C57BL/6J-DIO", "set-up": "unit not given here", "protocol": "(§1) The pharmacological effect of the fusion polypeptides produced and purified in Example 1 above was tested in mice (C57BL/6J, 6-week-old, male, 100 mice; Raonbio).\n(§2) In the present example, DI0 mouse model (Mouse, C57BL/6J-DIO, male, 100 mice, 14-week-old (obesity feed feeding for 8 weeks)) in which obesity was induced by feeding a high-fat diet into the C57BL/6J mice for 8 weeks was used.\n(§3) The administration of the test substances HT-ID1-GDF15, HT-ID2-GDF15, and HT-ID3-GDF15 and the control substance Semaglutide (Bachem) was conducted from the next day after group separation, and the administration time was performed at 9 AM every day. Subcutaneous administration was conducted for all the control substance and test substances. For the administration route of the control substance and test substances, subcutaneous administration was selected depending on the clinically scheduled administration route.\n(§4) For all the control substance and test substances, the amount of the administration solution was set to 5 mL/kg and the administration liquid by individual was calculated on the basis of the recently measured body weight and it was administered by subcutaneous injection once on the start day of the test using a disposable syringe (1 mL). The test substances were administered only once. For comparison, the control group in which the control substance Semaglutide was administered was prepared, and the comparison group in which Semaglutide was administered was administered once a day, and all the administration was progressed from 9 AM.\nIn addition, after administering the test substances into mice, the daily feed intake was measured, and the feeding amount was measured using an electronic scale for each breeding box, and the remaining amount was measured to calculate the daily feed intake. In case of an individual that gnawed heavily on heed, it was excluded from the measurement.\n(§5) All the experimental results obtained in the present example were expressed as mean±standard error and tested using Prism5 (version 5.01). One-way analysis of variance (ANOVA) was performed on all data, and when significance was observed, Dunnett's test was performed to find out the test groups with a significant difference from the control group (significance level: two-sided 5% and 1%, 0.1%)."}, "[2]": {"assay": "Single administration: body weight change in DIO mice", "assay_type": "in vivo, Mouse, C57BL/6J-DIO", "conditions": "single s.c. injection, mean", "protocol": "as §1, §2, §3, §4\nAs for the observation, measurement and test schedule for the test groups, the administration start date was set to Day 0, and 7 days from the administration start date were set to one week of administration.\nThe body weight of each mouse was measured on the day of the start of administration of the test substances (before administration), and thereafter, the body weight was measured every day (measured up to 9 days), and the amount of the administration solution of the test substances was determined on the basis of the most recently measured body weight.\nas §5"}},
  "data": [
    {"substance": "HT-ID3-GDF15: Fusion polypeptide: His-Tag, TEV cleavage site, three IgD hinges, GS linker, GDF15 (SEQ ID NO: 3)", "values": [
      {"measurement": "Feed intake, Mean", "setting": "[1]; Day 0, 10 nmol/kg Single Inj.", "result": 3.2},
      {"measurement": "Feed intake, Mean", "setting": "[1]; Day 1, 10 nmol/kg Single Inj.", "result": 2.0},
      {"measurement": "Feed intake, Mean", "setting": "[1]; Day 2, 10 nmol/kg Single Inj.", "result": 2.5},
      {"measurement": "Feed intake, Mean", "setting": "[1]; Day 3, 10 nmol/kg Single Inj.", "result": 2.3},
      {"measurement": "Feed intake, Mean", "setting": "[1]; Day 4, 10 nmol/kg Single Inj.", "result": 2.3},
      {"measurement": "Feed intake, Mean", "setting": "[1]; Day 5, 10 nmol/kg Single Inj.", "result": 2.7},
      {"measurement": "Feed intake, Mean", "setting": "[1]; Day 6, 10 nmol/kg Single Inj.", "result": 2.8},
      {"measurement": "Feed intake, Mean", "setting": "[1]; Day 7, 10 nmol/kg Single Inj.", "result": 3.3},
      {"measurement": "Feed intake, Mean", "setting": "[1]; Day 8, 10 nmol/kg Single Inj.", "result": 3.3},
      {"measurement": "Feed intake, Mean", "setting": "[1]; Day 9, 10 nmol/kg Single Inj.", "result": 3.6},
      {"measurement": "Body Weight (Group, % of initial)", "setting": "[2]; Day 0, 10 nmol/kg", "result": "100 % of initial"},
      {"measurement": "Body Weight (Group, % of initial)", "setting": "[2]; Day 1, 10 nmol/kg", "result": "98 % of initial"},
      {"measurement": "Body Weight (Group, % of initial)", "setting": "[2]; Day 2, 10 nmol/kg", "result": "97 % of initial"},
      {"measurement": "Body Weight (Group, % of initial)", "setting": "[2]; Day 3, 10 nmol/kg", "result": "96 % of initial"},
      {"measurement": "Body Weight (Group, % of initial)", "setting": "[2]; Day 4, 10 nmol/kg", "result": "95 % of initial"},
      {"measurement": "Body Weight (Group, % of initial)", "setting": "[2]; Day 5, 10 nmol/kg", "result": "94 % of initial"},
      {"measurement": "Body Weight (Group, % of initial)", "setting": "[2]; Day 6, 10 nmol/kg", "result": "95 % of initial"},
      {"measurement": "Body Weight (Group, % of initial)", "setting": "[2]; Day 7, 10 nmol/kg", "result": "95 % of initial"},
      {"measurement": "Body Weight (Group, % of initial)", "setting": "[2]; Day 8, 10 nmol/kg", "result": "95 % of initial"},
      {"measurement": "Body Weight (Group, % of initial)", "setting": "[2]; Day 9, 10 nmol/kg", "result": "96 % of initial"}
    ]}
  ]
}
